Assay results reported in patent US9951049B2, “Pyrazole linked benzimidazole conjugates and a process for preparation thereof” (Council of Scientific & Industrial Reseach, priority 2014, dated 2018).
“Also recorded” adds a separate entry of the source. Like-named read-outs stand apart in the source and are kept apart here.

Assays:
NCI-H226 = test: NCI SRB screen, NCI-H226; conditions: Homo sapiens, NCI-H226, 48 h, read-out: GI50 values
UACC-62 = test: NCI SRB screen, UACC-62; conditions: Homo sapiens, UACC-62, 48 h, read-out: GI50 values
OVCAR-8 = test: NCI SRB screen, OVCAR-8; conditions: Homo sapiens, OVCAR-8, 48 h, read-out: GI50 values
KM12 = test: NCI SRB screen, KM12; conditions: Homo sapiens, KM12, 48 h, read-out: GI50 values
Melanoma cell lines = test: NCI SRB screen, Melanoma panel average; conditions: Homo sapiens, 48 h, read-out: Log10 GI50 (converted)
MCF7 = test: NCI SRB screen, MCF7; conditions: Homo sapiens, MCF7, 48 h, read-out: GI50 values
M14 = test: NCI SRB screen, M14; conditions: Homo sapiens, M14, 48 h, read-out: GI50 values
NCI-H23 = test: NCI SRB screen, NCI-H23; conditions: Homo sapiens, NCI-H23, 48 h, read-out: GI50 values
DU-145 = test: NCI SRB screen, DU-145; conditions: Homo sapiens, DU-145, 48 h, read-out: GI50 values
SW-620 = test: NCI SRB screen, SW-620; conditions: Homo sapiens, SW-620, 48 h, read-out: GI50 values
NCI/ADR-RES = test: NCI SRB screen, NCI/ADR-RES; conditions: Homo sapiens, 48 h, read-out: GI50 values
MOLT-4 = test: NCI SRB screen, MOLT-4; conditions: Homo sapiens, MOLT-4, 48 h, read-out: GI50 values
MDA-MB-435 = test: NCI SRB screen, MDA-MB-435 (Breast panel); conditions: Homo sapiens, MDA-MB-435, 48 h, read-out: GI50 values
CAKI-1 = test: NCI SRB screen, CAKI-1; conditions: Homo sapiens, CAKI-1, 48 h, read-out: GI50 values
Renal cancer cell lines = test: NCI SRB screen, Renal panel average; conditions: Homo sapiens, 48 h, read-out: Log10 GI50 (converted)
HOP-62 = test: NCI SRB screen, HOP-62; conditions: Homo sapiens, HOP-62, 48 h, read-out: GI50 values
OVCAR-5 = test: NCI SRB screen, OVCAR-5; conditions: Homo sapiens, OVCAR-5, 48 h, read-out: GI50 values
Colon cancer cell lines = test: NCI SRB screen, Colon panel average; conditions: Homo sapiens, 48 h, read-out: Log10 GI50 (converted)
UACC-257 = test: NCI SRB screen, UACC-257; conditions: Homo sapiens, UACC-257, 48 h, read-out: GI50 values
SNB-75 = test: NCI SRB screen, SNB-75; conditions: Homo sapiens, SNB-75, 48 h, read-out: GI50 values
K-562 = test: NCI SRB screen, K-562; conditions: Homo sapiens, K562, 48 h, read-out: GI50 values
SNB-19 = test: NCI SRB screen, SNB-19; conditions: Homo sapiens, SNB-19, 48 h, read-out: GI50 values
HS 578T = test: NCI SRB screen, HS 578T; conditions: Homo sapiens, 48 h, read-out: GI50 values
BT-549 = test: NCI SRB screen, BT-549; conditions: Homo sapiens, BT-549, 48 h, read-out: GI50 values
ACHN = test: NCI SRB screen, ACHN; conditions: Homo sapiens, 48 h, read-out: GI50 values
CNS cancer cell lines = test: NCI SRB screen, CNS panel average; conditions: Homo sapiens, 48 h, read-out: Log10 GI50 (converted)
HCC-2998 = test: NCI SRB screen, HCC-2998; conditions: Homo sapiens, HCC 2998, 48 h, read-out: GI50 values
HCT-116 = test: NCI SRB screen, HCT-116; conditions: Homo sapiens, HCT-116, 48 h, read-out: GI50 values
[1] = tested on: Prostate cancer cell lines; test: NCI SRB screen, Prostate panel average; conditions: Homo sapiens, 48 h, read-out: Log10 GI50 (converted)
IGROV1 = test: NCI SRB screen, IGROV1; conditions: Homo sapiens, IGROV-1, 48 h, read-out: GI50 values
SK-MEL-5 = test: NCI SRB screen, SK-MEL-5; conditions: Homo sapiens, SK-MEL-5, 48 h, read-out: GI50 values, Melanoma, SK-MEL-5
[2] = tested on: fifty six human tumor cell lines; test: NCI human tumor cell line screen (48 h, SRB), all cell lines; conditions: for GI50: Homo sapiens
SF-539 = test: NCI SRB screen, SF-539; conditions: Homo sapiens, 48 h, read-out: GI50 values

Structure (SMILES): COc1cc(-c2cc(-c3nc4cc(Cl)c(Cl)cc4[nH]3)[nH]n2)cc(OC)c1OC [10f, 5,6-dichloro-2-(3-(3,4,5-trimethoxyphenyl)-1H-pyrazol-5-yl)-1H-benzo[d]imidazole]
- GI50 (NCI-H226): 2.29 µM
- GI50 (UACC-62): 1.94 µM
- GI50 (OVCAR-8): 2.51 µM
- GI50 (KM12): 3.56 µM
- GI50 (Melanoma cell lines): 2.82 µM
- GI50 (MCF7): 2.79 µM
- GI50 (M14): 3.57 µM
- GI50 (NCI-H23): 3.4 µM
- GI50 (DU-145): 4.16 µM
- GI50 (SW-620): 4.47 µM
- GI50 (NCI/ADR-RES): 3.25 µM
- GI50 (MOLT-4): 2.49 µM
- GI50 (MDA-MB-435): 3.49 µM
- GI50 (CAKI-1): 3.81 µM
- GI50 (Renal cancer cell lines): 3.55 µM
- GI50 (HOP-62): 3.43 µM
- GI50 (OVCAR-5): 7.08 µM
- GI50 (Colon cancer cell lines): 3.63 µM
- GI50 (UACC-257): 3.77 µM
- GI50 (SNB-75): 3.12 µM
- GI50 (K-562): 3.3 µM
- GI50 (SNB-19): 5.47 µM
- GI50 (HS 578T): 4.53 µM
- GI50 (BT-549): 2.84 µM
- GI50 (ACHN): 3.54 µM
- GI50 (CNS cancer cell lines): 3.55 µM
- GI50 (HCC-2998): 4.47 µM
- GI50 (HCT-116): 2.78 µM
- GI50 [1]: 3.02 µM
- GI50 (IGROV1): 3.86 µM
- GI50 (SK-MEL-5): 1.56 µM
- GI50 ([2]; read-out: GI50 value range): 0.34 to 10 µM
- GI50 ([2]; read-out: Log10 GI50 mean graph midpoint (MG_MID) (converted)): 3.31 µM
- anticancer activity (in words) ([2]; human cancer cell lines of the NCI panel): significant anticancer activity; also recorded: pronounced activities
- Log10 TGI mean graph midpoint (MG_MID) ([2]; human tumor cell lines, mean over the panel, total growth inhibition): −4.88
- GI50 (SF-539): 3.28 µM
